Measured values from patent publication US20100166846A1 (priority 2008, published 2010).
Read-outs that look alike come from different tables or passages of the source.

Columns and labels:
[1] = rat liver
Description: The tissue from the control animals (water) served as the 100% of the toxin remaining in the tissue. The animals receiving: • a.

[2] = humans, reference (7); cited from earlier work

CN1C(=O)CN=C(c2ccccc2)c2cc(Cl)ccc21 [valium]
tolerability in the animal (dog, in vivo): neither of which was tolerated

COc1ccccc1OCC(O)COC(N)=O (centres unmarked) [methocarbolmol]
tolerability in the animal (canine with myoclonus, initial symptom management): neither of which was tolerated

N[C@@H](CCC(=O)N[C@@H](CS)C(=O)NCC(=O)O)C(=O)O [Plain glutathione, glutathione]
removal of toxin ([1]; CO-60, intravenous administration): 70% | removal of toxin ([1]; CO-60, oral administration): 10% | absorption after oral ingestion [2]: not absorbed
